Source: paper PMC12136037, “Type II kinase inhibitors that target Parkinson’s disease–associated LRRK2” (Science Advances, 2025)

Experiments:
Assay in all cases: DSF 100 kinase selectivity screen;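 also: compound tested at 20 µM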
Assay type in all cases: binding
[1] = molecular target: T1, ~100 representative kinases (Homo sapiens, UniProt P45985); conditions: protein MAP2K4; average of three replicates
T1 construct: Recombinant protein kinase domains with a concentration of 2 μM
T1 sequence (P45985 1-399): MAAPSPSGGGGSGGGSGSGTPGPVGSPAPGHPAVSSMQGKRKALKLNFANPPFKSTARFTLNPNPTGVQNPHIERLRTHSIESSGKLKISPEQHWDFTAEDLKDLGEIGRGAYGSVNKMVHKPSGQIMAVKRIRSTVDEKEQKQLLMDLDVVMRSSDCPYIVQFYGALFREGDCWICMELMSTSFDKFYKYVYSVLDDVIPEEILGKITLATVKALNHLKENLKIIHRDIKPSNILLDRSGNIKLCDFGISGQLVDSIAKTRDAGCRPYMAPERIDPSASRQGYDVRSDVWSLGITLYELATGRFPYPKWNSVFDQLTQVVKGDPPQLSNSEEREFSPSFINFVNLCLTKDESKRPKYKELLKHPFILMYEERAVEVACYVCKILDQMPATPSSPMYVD
Summary of the method: (§1)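 Each kinase domain, at 2 μM, is mixed with 20 μM test compound and SYPRO Orange in Hepes (20 mM, pH 7.5) with 500 mM NaCl. Temperature is then raised at 3°C/min and fluorescence-monitored unfolding yields the melting temperature change, ΔTm in degrees Celsius.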

[2] = molecular target: T2, ~100 representative kinases (Homo sapiens, UniProt O14733); conditions: protein MAP2K7; average of three replicates
T2 construct: Recombinant protein kinase domains with a concentration of 2 μM
T2 sequence (O14733 1-419): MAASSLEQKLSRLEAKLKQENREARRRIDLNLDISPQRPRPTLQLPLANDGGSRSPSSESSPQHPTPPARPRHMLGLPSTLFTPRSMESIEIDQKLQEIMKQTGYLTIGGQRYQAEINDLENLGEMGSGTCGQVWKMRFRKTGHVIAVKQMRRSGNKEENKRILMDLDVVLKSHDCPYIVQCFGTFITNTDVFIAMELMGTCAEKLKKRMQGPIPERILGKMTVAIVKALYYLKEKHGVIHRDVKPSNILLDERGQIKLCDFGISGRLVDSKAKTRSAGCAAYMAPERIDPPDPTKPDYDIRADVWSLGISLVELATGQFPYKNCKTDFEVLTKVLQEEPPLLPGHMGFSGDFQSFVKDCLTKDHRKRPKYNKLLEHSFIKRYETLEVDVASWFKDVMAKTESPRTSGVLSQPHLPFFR
Summary of the method: as §1

[3] = molecular target: T3, ~100 representative kinases (Homo sapiens, UniProt P15735); conditions: protein PHKG2; average of three replicates
T3 construct: Recombinant protein kinase domains with a concentration of 2 μM
T3 sequence (P15735 1-406): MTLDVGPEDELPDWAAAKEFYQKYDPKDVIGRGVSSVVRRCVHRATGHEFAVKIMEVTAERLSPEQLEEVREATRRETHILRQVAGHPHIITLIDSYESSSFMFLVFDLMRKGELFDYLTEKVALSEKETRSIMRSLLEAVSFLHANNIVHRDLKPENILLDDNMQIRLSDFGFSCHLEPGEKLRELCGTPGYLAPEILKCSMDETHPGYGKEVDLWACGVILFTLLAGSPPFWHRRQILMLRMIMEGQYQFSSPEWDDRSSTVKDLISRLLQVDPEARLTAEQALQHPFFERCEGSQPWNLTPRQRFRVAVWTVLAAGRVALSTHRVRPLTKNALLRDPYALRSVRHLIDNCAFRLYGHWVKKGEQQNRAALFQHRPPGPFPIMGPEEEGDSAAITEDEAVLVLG
Summary of the method: as §1

[4] = molecular target: T4, ~100 representative kinases (Homo sapiens, UniProt Q00532); conditions: Protein CDKL1; average of three replicates
T4 construct: Recombinant protein kinase domains with a concentration of 2 μM
Summary of the method: as §1

[5] = molecular target: T5, ~100 representative kinases (Homo sapiens, UniProt P12931); conditions: Protein SRC; DSF; average of three replicates
T5 construct: Recombinant protein kinase domains with a concentration of 2 μM
Summary of the method: as §1

[6] = molecular target: T6, ~100 representative kinases (Homo sapiens, UniProt Q5VT25); conditions: Protein CDC42BPA; average of three replicates
T6 construct: Recombinant protein kinase domains with a concentration of 2 μM
Summary of the method: as §1

[7] = molecular target: T7, ~100 representative kinases (Homo sapiens, UniProt Q9H4A3); conditions: Protein WNK1; DSF; average of three replicates
T7 construct: Recombinant protein kinase domains with a concentration of 2 μM
Summary of the method: as §1

[8] = molecular target: T8, ~100 representative kinases (Homo sapiens, UniProt Q13153); conditions: protein PAK1; average of three replicates
T8 construct: Recombinant protein kinase domains with a concentration of 2 μM
Summary of the method: as §1

[9] = molecular target: T9, ~100 representative kinases (Homo sapiens, UniProt Q92630); conditions: Protein DYRK2; average of three replicates
T9 construct: Recombinant protein kinase domains with a concentration of 2 μM
T9 sequence (Q92630 1-601): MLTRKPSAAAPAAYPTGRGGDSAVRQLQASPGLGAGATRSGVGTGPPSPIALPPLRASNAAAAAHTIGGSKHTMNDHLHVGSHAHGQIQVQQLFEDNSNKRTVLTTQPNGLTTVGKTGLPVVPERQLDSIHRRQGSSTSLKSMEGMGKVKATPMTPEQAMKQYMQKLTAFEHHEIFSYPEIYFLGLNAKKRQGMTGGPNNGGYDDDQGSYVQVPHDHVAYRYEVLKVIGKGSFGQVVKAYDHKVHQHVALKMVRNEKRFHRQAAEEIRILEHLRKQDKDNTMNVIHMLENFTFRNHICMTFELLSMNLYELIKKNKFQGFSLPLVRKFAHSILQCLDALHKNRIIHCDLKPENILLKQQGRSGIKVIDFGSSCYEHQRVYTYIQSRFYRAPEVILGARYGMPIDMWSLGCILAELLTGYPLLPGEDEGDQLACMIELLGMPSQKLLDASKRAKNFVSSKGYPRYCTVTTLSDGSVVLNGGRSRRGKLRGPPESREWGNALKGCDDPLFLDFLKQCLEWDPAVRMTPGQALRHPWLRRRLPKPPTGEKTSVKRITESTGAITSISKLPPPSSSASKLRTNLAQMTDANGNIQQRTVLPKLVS
Summary of the method: as §1

T4 sequence (Q00532 whole entry, the tested form may be a part): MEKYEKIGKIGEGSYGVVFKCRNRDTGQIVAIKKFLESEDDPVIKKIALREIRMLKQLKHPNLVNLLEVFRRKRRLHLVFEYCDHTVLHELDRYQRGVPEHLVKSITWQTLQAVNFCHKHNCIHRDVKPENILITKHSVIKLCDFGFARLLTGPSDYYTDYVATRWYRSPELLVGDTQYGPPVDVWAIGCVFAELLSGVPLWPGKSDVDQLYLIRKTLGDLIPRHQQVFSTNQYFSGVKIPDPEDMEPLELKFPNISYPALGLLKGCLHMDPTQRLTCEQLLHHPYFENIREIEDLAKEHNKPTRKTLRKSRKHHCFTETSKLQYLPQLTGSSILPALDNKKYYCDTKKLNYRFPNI
T8 sequence (Q13153 whole entry, the tested form may be a part): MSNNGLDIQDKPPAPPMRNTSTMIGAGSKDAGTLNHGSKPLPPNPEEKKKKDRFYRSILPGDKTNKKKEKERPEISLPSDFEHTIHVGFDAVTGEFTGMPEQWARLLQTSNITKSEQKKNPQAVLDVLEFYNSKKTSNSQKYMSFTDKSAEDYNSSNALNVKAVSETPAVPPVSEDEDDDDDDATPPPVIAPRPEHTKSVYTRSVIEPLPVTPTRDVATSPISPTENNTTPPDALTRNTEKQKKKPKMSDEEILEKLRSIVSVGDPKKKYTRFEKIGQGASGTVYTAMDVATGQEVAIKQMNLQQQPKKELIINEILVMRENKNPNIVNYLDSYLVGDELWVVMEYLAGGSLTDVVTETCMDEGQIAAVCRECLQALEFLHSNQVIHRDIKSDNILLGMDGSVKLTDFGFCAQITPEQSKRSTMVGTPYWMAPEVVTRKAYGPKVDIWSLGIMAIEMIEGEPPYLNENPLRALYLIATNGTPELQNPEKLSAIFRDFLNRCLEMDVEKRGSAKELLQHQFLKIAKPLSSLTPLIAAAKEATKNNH
T7 sequence (Q9H4A3 whole entry, the tested form may be a part): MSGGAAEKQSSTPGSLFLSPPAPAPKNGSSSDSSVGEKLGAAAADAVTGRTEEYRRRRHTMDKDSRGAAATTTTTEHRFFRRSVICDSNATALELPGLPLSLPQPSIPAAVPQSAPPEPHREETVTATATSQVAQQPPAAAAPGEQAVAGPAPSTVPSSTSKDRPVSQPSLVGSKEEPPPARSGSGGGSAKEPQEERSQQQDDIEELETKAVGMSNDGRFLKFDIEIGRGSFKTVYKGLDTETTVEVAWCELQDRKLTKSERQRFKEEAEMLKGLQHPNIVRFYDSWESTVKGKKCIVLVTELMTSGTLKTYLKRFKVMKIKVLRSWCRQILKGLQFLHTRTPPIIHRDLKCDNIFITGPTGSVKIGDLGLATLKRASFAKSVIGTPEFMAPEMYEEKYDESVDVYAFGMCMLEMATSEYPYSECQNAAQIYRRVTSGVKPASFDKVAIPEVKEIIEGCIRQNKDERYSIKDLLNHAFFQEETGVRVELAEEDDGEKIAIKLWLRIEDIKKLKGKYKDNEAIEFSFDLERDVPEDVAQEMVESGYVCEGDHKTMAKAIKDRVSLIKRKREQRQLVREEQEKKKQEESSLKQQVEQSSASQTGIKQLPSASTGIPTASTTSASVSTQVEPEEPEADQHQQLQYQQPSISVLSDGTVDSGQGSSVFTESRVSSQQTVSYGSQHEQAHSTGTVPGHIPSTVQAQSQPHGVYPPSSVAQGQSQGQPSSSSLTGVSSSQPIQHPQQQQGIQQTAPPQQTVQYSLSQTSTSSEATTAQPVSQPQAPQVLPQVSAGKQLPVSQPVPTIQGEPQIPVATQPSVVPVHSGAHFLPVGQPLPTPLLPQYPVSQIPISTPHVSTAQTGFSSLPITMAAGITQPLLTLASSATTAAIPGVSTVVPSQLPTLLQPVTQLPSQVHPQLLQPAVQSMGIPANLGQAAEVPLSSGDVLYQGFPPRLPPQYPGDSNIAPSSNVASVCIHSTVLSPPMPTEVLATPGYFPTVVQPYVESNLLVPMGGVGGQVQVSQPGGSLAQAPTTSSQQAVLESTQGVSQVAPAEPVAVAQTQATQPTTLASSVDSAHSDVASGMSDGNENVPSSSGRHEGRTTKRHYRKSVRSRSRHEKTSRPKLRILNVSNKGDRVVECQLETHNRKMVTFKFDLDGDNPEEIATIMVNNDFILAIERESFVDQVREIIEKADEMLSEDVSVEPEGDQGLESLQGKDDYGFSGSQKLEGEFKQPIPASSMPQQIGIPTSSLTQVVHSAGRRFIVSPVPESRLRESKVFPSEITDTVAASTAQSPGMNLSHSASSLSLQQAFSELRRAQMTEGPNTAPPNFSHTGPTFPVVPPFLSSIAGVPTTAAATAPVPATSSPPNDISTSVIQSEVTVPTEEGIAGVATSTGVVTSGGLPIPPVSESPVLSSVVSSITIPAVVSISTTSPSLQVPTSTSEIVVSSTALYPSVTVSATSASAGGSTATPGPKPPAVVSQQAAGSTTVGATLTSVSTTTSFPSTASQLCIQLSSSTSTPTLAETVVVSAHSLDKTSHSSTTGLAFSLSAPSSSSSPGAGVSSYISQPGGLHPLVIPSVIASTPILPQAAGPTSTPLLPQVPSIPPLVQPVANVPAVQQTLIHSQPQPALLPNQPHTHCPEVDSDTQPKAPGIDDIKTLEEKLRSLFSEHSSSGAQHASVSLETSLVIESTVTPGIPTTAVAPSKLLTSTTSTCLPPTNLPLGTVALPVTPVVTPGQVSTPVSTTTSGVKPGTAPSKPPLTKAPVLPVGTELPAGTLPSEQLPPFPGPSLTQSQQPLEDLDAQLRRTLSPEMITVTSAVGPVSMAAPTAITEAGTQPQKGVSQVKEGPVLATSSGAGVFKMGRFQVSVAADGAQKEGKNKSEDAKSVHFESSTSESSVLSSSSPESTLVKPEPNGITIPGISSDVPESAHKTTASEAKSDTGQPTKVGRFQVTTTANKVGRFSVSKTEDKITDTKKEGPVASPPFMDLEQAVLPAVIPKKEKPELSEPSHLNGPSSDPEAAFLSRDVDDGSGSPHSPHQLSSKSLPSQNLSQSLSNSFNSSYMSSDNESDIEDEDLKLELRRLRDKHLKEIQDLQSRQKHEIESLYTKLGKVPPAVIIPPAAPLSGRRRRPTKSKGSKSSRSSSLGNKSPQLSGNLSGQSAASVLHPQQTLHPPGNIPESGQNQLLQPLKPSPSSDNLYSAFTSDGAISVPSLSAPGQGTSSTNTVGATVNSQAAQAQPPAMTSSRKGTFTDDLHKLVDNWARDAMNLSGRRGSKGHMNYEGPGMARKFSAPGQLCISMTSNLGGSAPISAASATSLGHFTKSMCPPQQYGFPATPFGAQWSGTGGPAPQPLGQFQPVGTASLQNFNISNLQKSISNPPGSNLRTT
T5 sequence (P12931 whole entry, the tested form may be a part): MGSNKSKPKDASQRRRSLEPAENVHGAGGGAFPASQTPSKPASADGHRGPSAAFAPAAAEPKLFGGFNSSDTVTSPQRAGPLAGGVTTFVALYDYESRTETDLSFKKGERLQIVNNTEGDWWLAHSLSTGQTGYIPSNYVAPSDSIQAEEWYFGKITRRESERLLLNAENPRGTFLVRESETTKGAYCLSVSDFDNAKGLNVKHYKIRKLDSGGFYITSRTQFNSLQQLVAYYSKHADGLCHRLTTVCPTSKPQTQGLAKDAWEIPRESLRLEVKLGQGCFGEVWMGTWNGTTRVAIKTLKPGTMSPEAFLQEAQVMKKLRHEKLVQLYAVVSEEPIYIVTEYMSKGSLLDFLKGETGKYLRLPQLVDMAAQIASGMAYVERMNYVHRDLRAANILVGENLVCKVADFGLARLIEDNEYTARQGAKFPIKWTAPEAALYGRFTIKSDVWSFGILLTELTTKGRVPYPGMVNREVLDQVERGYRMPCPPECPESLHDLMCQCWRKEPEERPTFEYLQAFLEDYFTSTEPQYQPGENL

SMILES	dTm [1] [K]	dTm [2] [K]	dTm [3] [K]	dTm [4] [K]	dTm [5] [K]	dTm [6] [K]	dTm [7] [K]	dTm [8] [K]	dTm [9] [K]
Cc1cc(NC(=O)C2(C(=O)Nc3cccc(-c4c[nH]c5ncnc(N6CCOCC6)c45)c3)CC2)ccc1F [Compound 20]	7.49	5.31	2.79	5.67	1.91	-1.13	0.02	6.40	10.73
CCNc1nc(Nc2cc(F)c(C(=O)N3CCOCC3)cc2OC)ncc1C(F)(F)F [GNE-7915]	1.26	-0.22	1.11	0.08	-0.11	-0.72	-0.0645	-0.11	4.85
CC(C)(C)c1cccc(NC(=O)C2(C(=O)Nc3cccc(-c4c[nH]c5ncnc(N6CCOCC6)c45)c3)CC2)c1 [Compound 22]	5.69	3.77	-0.10	4.95	-0.0179	-0.53	-1.93	3.87	5.80
CN[C@@H]1C[C@H]2O[C@@](C)([C@@H]1OC)n1c3ccccc3c3c4c(c5c6ccccc6n2c5c31)C(=O)NC4 [Staurosporine]		7.05				3.20	2.20	7.21	
O=C(Nc1cccc(-c2c[nH]c3ncnc(N4CCOCC4)c23)c1)C1(C(=O)Nc2ccc(F)cc2F)CC1 [Compound 23]	5.20	3.10	0.21	1.97	0.45	-1.22	-0.34	1.05	3.88
CC(=O)N1CCN(c2nc(Cl)nc3[nH]cc(-c4cccc(NC(=O)Nc5cc(C(C)(C)C)nn5-c5ccc(C)cc5)c4)c23)CC1 [Compound 31]	1.72	2.84	-0.72	5.56	0.41	0.50	0.46	0.00835	6.61
O=C(Nc1cc(F)cc(Br)c1)C1(C(=O)Nc2cccc(-c3c[nH]c4ncnc(N5CCOCC5)c34)c2)CC1 [Compound 27]	5.62	3.41	0.85	0.61	0.35	0.59	0.64	3.33	3.64
Cc1ccc(C(=O)Nc2ccc(CN3CCN(C)CC3)c(C(F)(F)F)c2)cc1C#Cc1cnc2[nH]ncc2c1 [GZD-824, reference compound]	1.62	4.88	-0.11	4.34	2.45	-1.37	0.53	4.19	4.99
O=C(Nc1ccccc1)C1(C(=O)Nc2cccc(-c3c[nH]c4ncnc(N5CCOCC5)c34)c2)CC1 [Compound 12]	5.86	4.30	1.25	3.09	1.12	-0.16	-0.065	1.90	6.15
CNC(=O)c1cc(Oc2ccc(NC(=O)Nc3cc(C(C)(C)C)nn3-c3ccc4ncccc4c3)c(F)c2)ccn1 [Rebastinib, reference compound]	0.53	2.63		5.33	10.52	0.18		1.98	6.14
COc1cc2c(Oc3ccc(NC(=O)C4(C(=O)Nc5ccc(F)cc5)CC4)cc3F)ccnc2cc1OCCCN1CCOCC1 [Foretinib, reference compound]	2.73		1.61	1.22	8.21	0.32	1.01	1.69	4.19
Cc1ccc(NC(=O)C2(C(=O)Nc3cccc(-c4c[nH]c5ncnc(N6CCOCC6)c45)c3)CC2)cc1 [Compound 14]	5.95	2.82	0.65	1.85	1.11	-1.21	0.16	2.44	6.23
Cc1ccc(C(=O)Nc2ccc(CN3CCN(C)CC3)c(C(F)(F)F)c2)cc1C#Cc1cnc2cccnn12 [Ponatinib, reference compound]					1.53	-1.37			
O=C(Nc1ccc(Cl)cc1)C1(C(=O)Nc2cccc(-c3c[nH]c4ncnc(N5CCOCC5)c34)c2)CC1 [Compound 13]	6.61	4.62	3.23	3.38	1.70	-0.08	0.30	3.82	9.27
Cc1ccc(-n2nc(C(C)(C)C)cc2NC(=O)Nc2cccc(-c3c[nH]c4ncnc(N5CCOCC5)c34)c2)cc1 [Compound 29]	5.30	4.70	2.17	10.84	5.51	-0.10	1.43	3.58	9.71
O=C(Nc1cccc(-c2c[nH]c3ncnc(N4CCOCC4)c23)c1)C1(C(=O)Nc2ccc(F)c(Br)c2)CC1 [Compound 19]	6.16	4.93	1.52	4.06	-0.25	0.14	0.64	5.56	3.42
O=C(Nc1cccc(-c2c[nH]c3ncnc(N4CCOCC4)c23)c1)C1(C(=O)Nc2ccc(F)c(Cl)c2)CC1 [Compound 18]	6.47	5.35	3.01	3.38	1.18	-0.25	1.16	5.39	9.51
